{"source": "patent US12233047B2", "about": "“Pharmaceutical combination and use thereof” (ASCENTAGE PHARMA (SUZHOU) CO., LTD., priority 2019, dated 2025)", "test_system": "Human AML cell line MV-4-11 (FLT3-ITD positive and wild type TP53 gene)", "assay": "Human MV-4-11 AML subcutaneous mouse xenograft model", "format": "in vivo", "details": "MV-4-11 subcutaneous xenograft, Compound 23 10 mg/kg, Compound C 30 mg/kg", "protocol": "The formulation of Compound C was prepared as homogenous suspension in 0.2% HPMC using a mortar. The drug suspension was prepared every three days or once a week and placed at 4° C. when not in use. Before use, the drug suspension was placed at room temperature and shaken to mix well. The formulation of Compound C was administered to mice via p.o. in a volume of 10 mL/kg. […] The drug suspension was prepared once every other day and placed at 4° C. when not in use. Before use, the drug suspension was placed at room temperature and shaken well. […] MV-4-11 cells (Human AML cell line MV-4-11 (FLT3-ITD positive and wild type TP53 gene)) were maintained in IMDM (Cat. C12440500BT, GIBCO), with 10% fetal bovine serum (Cat. 10099-141, GIBCO), 1% L-glutamine, 100 U/mL penicillin G and 100 μg/mL streptomycin (Cat. GNM15140, Hangzhou Geno Biomedical Technology Co., Ltd). Cells were incubated at 37° C. in a humidified incubator with 5% CO2. Six to eight weeks old, female, NOD SCID and BALB/c nude mice were used. Animals were obtained from Vital River Laboratories (VRL, Beijing, China, license number SCXK(J) 2012-0001 and SCXK(J) 2016-0006). The body weights were 17-24 g. Randomization was conducted when the size of xenograft tumors reached 100-150 mm^3. Based on the size of the tumor and body weight, animals were randomly assigned into experimental groups. […] MV-4-11 subcutaneous xenograft models were established by subcutaneously injecting tumor cells (1×10^7 cells (50% Matrigel)/mouse) into the right flank of the mouse under the sterile condition. When the tumors reached an appropriate size (100-200 mm^3), mice were randomized into 6 mice per group and treatment was initiated (day 1) according to Table 4. [table] The tumors sizes and animal body weights were measured twice a week. Tumor volumes were estimated from measurements of two diameters of the individual tumors as follows: Tumor Volume (mm^3)=(a×b^2)/2 Relative tumor volume (RTV) were calculated according to the follows: RTV=Vt/V1 where V1 and Vt were respectively the average tumor volume on the first day of treatment (day 1) and the average tumor volume on a certain time point (day T). Standard NCI procedures were used to calculate tumor parameters (Teicher, B. A. (2011). “Tumor Models in Cancer Research.” Second Edition, Human Press). Percent tumor growth inhibition (% T/C) was calculated as the mean RTV of treated tumors (T) divided by the mean RTV of control tumors (C)×100%. […] A body weight loss (mean of group) of greater than 20%, or greater than 20% of drug deaths are considered to indicate an excessively toxic dosage. The synergistic analysis was performed using the following formula described in Clarke R. Issues in experimental design and endpoint analysis in the study of experimental cytotoxic agents in vivo in breast cancer and other models[J]. Breast Cancer Research & Treatment, 1997, 46(2-3):255-278, which is incorporated by reference in its entirety: expected value=(A/C)×(B/C); actual value=(AB)/C; A: RTV of drug A; B: RTV of drug B; C=RTV of the vehicle control group; AB=RTV of the combination group. Ratio=expected/actual value. […] A ratio=1 indicates the two drugs have additive effects. A ratio <1 indicates the two drugs may have antagonist effects. According to the earlier publication (Gao, H., et al. (2015). “High-throughput screening using patient-derived tumor xenografts to predict clinical trial drug response” Nat Med 21: 1318), additional measurements of response included stable disease (SD), partial tumor regression (PR), and complete regression (CR) were determined by comparing tumor volume change at day t to its baseline: tumor volume change (%)=(Vt−V1)/V1. […] For each time t, the average of tumor volume change from t=1 to t was also calculated. […]", "data": [{"smiles": "Cc1ccc(C(=O)Nc2ccc(CN3CCN(C)CC3)c(C(F)(F)F)c2)cc1C#Cc1cnc2[nH]ncc2c1", "note": "[Compound 23, 3-(2-(1H-pyrazolo[3,4-b]pyridin-5-yl)ethynyl)-4-methyl-N-(4-((4-methylpiperazin-1-yl)methyl)-3-(trifluoromethyl)phenyl)benzamide]", "values": [{"measurement": "Tumor weight on D 22 (Mean ± SEM)", "setting": "day 22, p.o. q2d × 22 d, vehicle 2.29 ± 0.29, in g (unit assumed)", "value": "0.67 ± 0.11"}, {"measurement": "T/C(%)@D 22", "setting": "mean RTV treated/control, day 22, p.o. q2d", "value": 28.6, "unit": "%"}, {"measurement": "RTV@D 22", "setting": "relative tumor volume day 22, p.o. q2d, vehicle 18.2 ± 3.3", "value": "5.2 ± 0.9"}]}]}
